This is an account of results in patent publication US11413239B2, “Pharmaceutical composition of tapentadol for nasal administration” (Torrent Pharmaceuticals Ltd., priority 2011, dated 2022).

SMILES strings stand for the structures.

The nature of series [1]: Crystal formation in concentrated tapentadol solution on storage. It is filed as physicochemical. The following applies: increased concentration of tapentadol in solution, stored for more than 3 days. The source says: This makes the formulation non-homogeneous and therefore non-suitable for nasal administration. This crystal growth may further leads to altered therapeutic effect of the drug. Present invention overcomes this problem by providing a composition, wherein no such crystal growth is observed in the composition comprising high concentration of drug, when stored for longer duration.

The conditions of series [2]: cited from earlier work.

Consider `CC[C@@H](c1cccc(O)c1)[C@@H](C)CN(C)C.Cl` [Tapentadol, 3-[(1R,2R)-3-(dimethylamino)-1-ethyl-2-methylpropyl]phenol], for which the “crystal formation on storage” value in series [1] is listed as “formation of crystals”. Besides, the clearance in series [2] (Eur. J. Drug Met and Pharmacokinetics 2007, 32, 163-169) is 1468.+−.122 mL/min. Besides, the “time of maximum serum concentration” value in series [2] (after oral dosing) is “around 1.25 hours”. The parent compound metabolized entry in series [2] (given orally) was “About 97%”. The “time to absorb after administration” value in series [2] (oral formulations) is “at least 45 minutes”.
